Where two headings read alike, the source gives them in different places. Starred links: 1 amine or outer side, 2 acyl side, 3 side chain; linkers in the order of their positions; H or OH if unused. Positions of bridges follow the written chain, without caps; N, C: chain ends. Non-standard residues stand in square brackets, D forms with d. Residues, ends and D or L forms follow the SMILES beside them. Chains are numbered I, II in the order given. No end group written: not given here. *: point of attachment. X3 = O=C(CCOCCOCCOCCOCCOCCOCCOCCOCCOCCOCCOCCOCCOCCOCCOCCOCCOCCOCCOCCOCCOCCOCCOCCOCCn1cc(CCC(=O)[*:2])nn1)[*:1]; TBMT = 2,4,6-tris(bromomethyl)-s-triazine, molecular scaffold, C(c1nc(C[*:2])nc(C[*:3])n1)[*:1]; X1 = O=C(CCOCCOCCOCCN(CCOCCOCCOCCn1cc(CCC(=O)[*:2])nn1)CCOCCOCCOCCn1cc(CCC(=O)[*:3])nn1)[*:1]; TATA = O=C(CC[*:1])N1CN(C(=O)CC[*:2])CN(C(=O)CC[*:3])C1; Hyp = O=C(O)[C@@H]1C[C@@H](O)CN1; hArg = N=C(N)NCCCC[C@H](N)C(=O)O; Cba = N[C@@H](CC1CCC1)C(=O)O; Pent4ynoyl = C#CCCC(=O)*
What was measured:
[1] = NK cytotoxicity assay (NK:HT1080-luc co-culture, luciferase readout); assay type: cell-based, human; conditions: NK:HT1080-luc co-culture, 24 hours, read-out: EC50 NK cytotoxicity (tumor cell killing)
Experimental: (§1) Heterotandem bicyclic peptide complexes were evaluated for NK functional readouts (cytotoxicity and cytokine secretion) in NK-tumor cell line co-cultures.
(§2) NK cells were isolated using a negative isolation kit (STEMCELL™ Technologies 17955) from the total PBMC population purified from whole blood. NK cell pellet was then resuspended in DMEM medium (Corning™ 10-013-CV) with 10% heat-inactivated fetal bovine serum (FBS; Corning® 35-011-CV), 10 mM HEPES (Gibco™ 15-630-080), and 1% Penicillin Streptomycin (Corning™ 30-002-CI), and 50 IU/mL human IL-2 (Miltenyi Biotec® 130-097-748), at a concentration of 4×10^5 cells/mL. For the NK cell cytotoxicity assays, 50 μL (2×10^4) of cell suspension was plated in the 96-well plate (Grenier® Bio One™ 655090) containing 50 μl (4×10^3) HT1080-luc cells (ATCC® CCL-121-luc2) in DMEM (Gibco™ 11875-093; with L-glutamine) with 10% heat-inactivated fetal bovine serum (FBS; Corning® 35-011-CV), 10 mM HEPES (Gibco™ 15-630-080), and 1% Penicillin Streptomycin (Corning™ 30-002-CI). […] The plates were then incubated for 24 hours at 37° C., 5% CO2. Post-incubation, plates was centrifuged at 250×g for 5 minutes and 100 μl supernatant discarded. Samples were then incubated 10 minutes with 50 μl Bright-Glo™ Luciferase Assay system (Promega™ E2620). Luminescence upon excitation at 570 nm was read using a CLARIOstar® plate-reader with MARS Data Analysis Software™. Data was fit to a four-parameter non-linear regression in GraphPad Prism™ 8.0.2 to generate an EC50 value.

HT1080-luc cells = test: as above; assay type: cell-based, human; conditions: for effect on tumor cell killing by NK cells, in words: in comparison to NK:HT1080-luc co-culture without heterotandem complex (NK-TICA)
Experimental: as §1, §2

NKp46 (human) = NKp46 (human) (UniProt O76036); test: cell-based or functional assay
Chain of NKp46 (human) (O76036 22-304): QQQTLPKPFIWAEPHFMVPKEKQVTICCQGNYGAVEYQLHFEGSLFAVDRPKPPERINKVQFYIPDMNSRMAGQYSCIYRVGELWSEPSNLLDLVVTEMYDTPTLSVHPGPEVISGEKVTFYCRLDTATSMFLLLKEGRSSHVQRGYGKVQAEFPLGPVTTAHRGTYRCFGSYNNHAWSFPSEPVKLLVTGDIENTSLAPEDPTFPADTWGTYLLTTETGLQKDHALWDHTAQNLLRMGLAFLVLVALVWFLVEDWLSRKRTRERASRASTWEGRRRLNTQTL

[2] = four-parameter logistic regression, FIGS. 2-4, 6-8, 10

CC[C@H](C)[C@@H]1NC(=O)CNC(=O)[C@H](Cc2c[nH]c3ccccc23)NC(=O)[C@H](CCC(N)=O)NC(=O)[C@@H]2CSCCC(=O)N3CN(CN(C3)C(=O)CCSC[C@@H](C(=O)N[C@@H](C)C(=O)N[C@@H](CCCCNC(=O)CCc3cn(CCOCCOCCOCCN(CCOCCOCCOCCC(=O)N[C@@H](C)C(=O)N[C@@H](CCCCNC(=N)N)C(=O)N[C@@H](CC(=O)O)C(=O)N[C@H]4CSCCC(=O)N5CN6CN(C5)C(=O)CCSC[C@H](NC(=O)[C@H](CC(C)C)NC(=O)[C@@H]5CCCN5C(=O)[C@H](CC(N)=O)NC(=O)[C@H](C(C)C)NC(=O)[C@H](CC(C)C)NC(=O)[C@@H]5C[C@@H](O)CN5C4=O)C(=O)N[C@@H](CC(C)C)C(=O)N[C@@H](Cc4c[nH]cn4)C(=O)N4CCC[C@H]4C(=O)N[C@H](CC(=O)O)C(=O)N[C@@H](Cc4c[nH]c5ccccc45)C(=O)N[C@@H](CCCCNC(=N)N)C(=O)N[C@H](C(N)=O)CSCCC6=O)CCOCCOCCOCCn4cc(CCC(=O)NCCCC[C@H](NC(=O)[C@H](C)NC(=O)[C@@H]5CSCCC(=O)N6CN7CN(C6)C(=O)CCSC[C@H](NC(=O)[C@H](CC(N)=O)NC(=O)[C@H](Cc6c[nH]cn6)NC(=O)[C@H]([C@@H](C)O)NC(=O)[C@H]([C@@H](C)O)NC(=O)[C@H](CC(C)C)NC(=O)[C@H](CC(=O)O)NC(=O)[C@@H](NC(=O)[C@H](C)N)CSCCC7=O)C(=O)N[C@@H](CCC(N)=O)C(=O)N[C@@H](Cc6c[nH]c7ccccc67)C(=O)NCC(=O)N[C@@H]([C@@H](C)CC)C(=O)N5)C(N)=O)nn4)nn3)C(N)=O)NC1=O)C(=O)CCSC[C@H](NC(=O)[C@H](C)N)C(=O)N[C@@H](CC(=O)O)C(=O)N[C@@H](CC(C)C)C(=O)N[C@@H]([C@@H](C)O)C(=O)N[C@@H]([C@@H](C)O)C(=O)N[C@@H](Cc1c[nH]cn1)C(=O)N[C@@H](CC(N)=O)C(=O)N2 [BCY15923]
EC50 [1, 2]: 0.044 nM
effect on tumor cell killing by NK cells, in words (HT1080-luc cells): dose-dependent NK cell response to kill

CC(=O)N[C@H]1CSCCC(=O)N2CN3CN(C2)C(=O)CCSC[C@H](NC(=O)[C@H](CC(C)C)NC(=O)[C@H](Cc2ccc(O)cc2)NC(=O)[C@H](CC(=O)O)NC(=O)[C@@H]2CCCN2C(=O)[C@H](CC2CCC2)NC(=O)[C@H](Cc2ccc(O)cc2)NC1=O)C(=O)N[C@H](C)C(=O)N[C@@H](CC(=O)O)C(=O)N[C@@H](CCC(=O)O)C(=O)N[C@@H](Cc1ccc(O)cc1)C(=O)N[C@H](C(=O)N[C@@H](CCCCNC(=O)CCc1cn(CCOCCOCCOCCN(CCOCCOCCOCCC(=O)N[C@@H](CC(C)C)C(=O)N2CCC[C@H]2C(=O)N2CCC[C@H]2C(=O)N[C@H]2CSCCC(=O)N4CN5CN(C4)C(=O)CCSC[C@H](NC(=O)[C@H](CCC(=O)O)NC(=O)[C@H](CCCCNC(=N)N)NC(=O)[C@H](C(C)C)NC2=O)C(=O)N[C@@H](C)C(=O)N[C@@H](CC(C)(C)C)C(=O)N[C@@H](CC(C)C)C(=O)N[C@@H](Cc2ccccc2)C(=O)N2CCC[C@H]2C(=O)N[C@@H](CCCCNC(=N)N)C(=O)N[C@@H]([C@@H](C)O)C(=O)N[C@H](C(N)=O)CSCCC5=O)CCOCCOCCOCCn2cc(CCC(=O)NCCCC[C@H](NC(=O)[C@@H]4CSCCC(=O)N5CN6CN(C5)C(=O)CCSC[C@H](NC(=O)[C@H](CC(C)C)NC(=O)[C@H](Cc5ccc(O)cc5)NC(=O)[C@H](CC(=O)O)NC(=O)[C@@H]5CCCN5C(=O)[C@H](CC5CCC5)NC(=O)[C@H](Cc5ccc(O)cc5)NC(=O)[C@@H](NC(C)=O)CSCCC6=O)C(=O)N[C@H](C)C(=O)N[C@@H](CC(=O)O)C(=O)N[C@@H](CCC(=O)O)C(=O)N[C@@H](Cc5ccc(O)cc5)C(=O)N4)C(N)=O)nn2)nn1)C(N)=O)CSCCC3=O [BCY18604]
EC50 [1, 2]: 0.0079 nM
effect on tumor cell killing by NK cells, in words (HT1080-luc cells): enhanced NK cytotoxicity

CC(=O)N[C@H]1CSCCC(=O)N2CN3CN(C2)C(=O)CCSC[C@H](NC(=O)[C@H](CC(C)C)NC(=O)[C@H](Cc2ccc(O)cc2)NC(=O)[C@H](CC(=O)O)NC(=O)[C@@H]2CCCN2C(=O)[C@H](CC2CCC2)NC(=O)[C@H](Cc2ccc(O)cc2)NC1=O)C(=O)N[C@H](C)C(=O)N[C@@H](CC(=O)O)C(=O)N[C@@H](CCC(=O)O)C(=O)N[C@@H](Cc1ccc(O)cc1)C(=O)N[C@H](C(=O)N[C@@H](CCCCNC(=O)CCc1cn(CCOCCOCCOCCOCCOCCOCCOCCOCCOCCOCCOCCOCCOCCOCCOCCOCCOCCOCCOCCOCCOCCOCCOCCOCCC(=O)N[C@@H](C)C(=O)N[C@@H](CCCCNC(=N)N)C(=O)N[C@@H](CC(=O)O)C(=O)N[C@H]2CSCCC(=O)N4CN5CN(C4)C(=O)CCSC[C@H](NC(=O)[C@H](CC(C)C)NC(=O)[C@@H]4CCCN4C(=O)[C@H](CC(N)=O)NC(=O)[C@H](C(C)C)NC(=O)[C@H](CC(C)C)NC(=O)[C@@H]4C[C@@H](O)CN4C2=O)C(=O)N[C@@H](CC(C)C)C(=O)N[C@@H](Cc2c[nH]cn2)C(=O)N2CCC[C@H]2C(=O)N[C@H](CC(=O)O)C(=O)N[C@@H](Cc2c[nH]c4ccccc24)C(=O)N[C@@H](CCCCNC(=N)N)C(=O)N[C@H](C(N)=O)CSCCC5=O)nn1)C(N)=O)CSCCC3=O [BCY18731] (I: A[hArg]DC[Hyp]LVNPLCLHP[dD]W[hArg]C-NH2 / II: Ac-CY[Cba]PDYLC[dA]DEYCK-NH2; linker I:4-I:11-I:18, II:1-II:8-II:13 via TATA; linker I:N-II:14 via X3; C-terminus assumed)
EC50 [1, 2]: 0.018 nM

BCY17235: EphA2 peptide BCY9594 linked to NKp46 peptide (BCY17224) and CD16a peptide (BCY13883) via a TCA-[Peg23]3 linker (peptide 1 A[hArg]DC[Hyp]LVNPLCLHP[dD]W[hArg]C; peptide 2 Ac-CY[Cba]PDYLC[dA]DEYCK(Pent4ynoyl); peptide 3 ACRWSVEDPCGAWCAK(Pent4ynoyl); linker I:4-I:11-I:18, II:1-II:8-II:13 via TATA; linker III:2-III:10-III:14 via TBMT; also: chain 1 N-terminus and the K(PYA) of chains 2 and 3 joined through TCA-[Peg23]3 linker)
EC50 (HT1080-luc cells; NK:HT1080-luc co-culture, 24 hours, four-parameter logistic regression, FIGS. 2-4, 6-8, 10, read-out: EC50 NK cytotoxicity (tumor cell killing)): 0.014 nM
effect on tumor cell killing by NK cells, in words (HT1080-luc cells): enhanced, dose-dependent effect on tumor cell killing

I: A[hArg]DC[Hyp]LVNPLCLHP[dD]W[hArg]C-NH2 / II: ACNLQAPCMQTGKVCAK-NH2 / III: ACNLQAPCMQTGKVCAK-NH2 (linker I:4-I:11-I:18, II:2-II:8-II:15, III:2-III:8-III:15 via TATA; linker I:N-II:17-III:17 via X1; C-terminus assumed) [BCY15924]
EC50 ([1]; FIG. 9): 0.5 nM
effect on tumor cell killing by NK cells, in words (HT1080-luc cells): enhanced NK cytotoxicity

I: A[hArg]DC[Hyp]LVNPLCLHP[dD]W[hArg]C-NH2 / II: Ac-CY[Cba]PDYLC[dA]DEYCK-NH2 / III: Ac-CY[Cba]PDYLC[dA]DEYCK-NH2 (linker I:4-I:11-I:18, II:1-II:8-II:13, III:1-III:8-III:13 via TATA; linker I:N-II:14-III:14 via X1; C-terminus assumed) [BCY17226]
EC50 [1, 2]: 0.0061 nM
effect on tumor cell killing by NK cells, in words (HT1080-luc cells): dose-dependent NK cell response to kill

I: Ac-D[hArg]CSAGWLTMCQKLHLCPSH-NH2 / II: Ac-CY[Cba]PDYLC[dA]DEYCK-NH2 / III: Ac-CY[Cba]PDYLC[dA]DEYCK-NH2 (linker I:3-I:11-I:17, II:1-II:8-II:13, III:1-III:8-III:13 via TATA; linker I:13-II:14-III:14 via X1; C-terminus assumed) [BCY18603]
EC50 [1, 2]: 0.003 nM
effect on tumor cell killing by NK cells, in words (HT1080-luc cells): enhanced NK cytotoxicity

B1: heterotandem bicyclic peptide complex BCY18731 (peptide)
peptide 1: A[hArg]DC[Hyp]LVNPLCLHP[dD]W[hArg]C
peptide 2: Ac-CY[Cba]PDYLC[dA]DEYCK(Pent4ynoyl)
modifications: linker I:4-I:11-I:18, II:1-II:8-II:13 via TATA; not fully specified (bridges); also: joined via azide-PEG24-acid linker (N-terminus of chain 1 to PYA of chain 2, triazole)
EC50, NK cytotoxicity assay (HT1080-luc luminescence) (NKp46 (human)): 18 pM

B2: heterotandem bicyclic peptide complex BCY21686 (peptide)
peptide 1: A[hArg]DC[Hyp]LVNPLCLHP[dD]W[hArg]C
peptide 2: Ac-CY[Cba]PDYLC[dA]DEYCK(Pent4ynoyl)
modifications: linker I:4-I:11-I:18, II:1-II:8-II:13 via TATA; not fully specified (bridges); also: EphA2:NKp46 1:3, three copies of chain 2 on the linker, linker also given with PEG3-acid, X5, X17: HyP or HArg
EC50, NK cytotoxicity assay (HT1080-luc luminescence) (NKp46 (human)): 1.3 pM
